Results published in patent publication US20250235508A1, “MODIFIED THERAPEUTIC AGENTS AND COMPOSITIONS THEREOF” (THE SCRIPPS RESEARCH INSTITUTE, priority 2015, published 2025).
Starred links: 1 amine or outer side, 2 acyl side, 3 side chain; linkers in the order of their positions; H or OH if unused. Positions of bridges follow the written chain, without caps; N, C: chain ends. Non-standard residues stand in square brackets, D forms with d. Residues, ends and D or L forms follow the SMILES beside them. Glutaryl = O=C(CCCC(=O)[*:2])[*:1]

Key:
[1] = biological target: T1, human glucagon-like peptide 1 receptor (GLP-1R) (Homo sapiens, UniProt P43220); assay: GLP-1R receptor-mediated CRE Luc reporter assay (receptor-mediated cAMP synthesis); type: cell-based; settings: HEK293-GLP-1R-CRE cells, luciferase reporter
T1 construct: expressed in transfected cells; host or cells: HEK293 (CRE-HEK293)
Description: HEK293 cells were infected with lent virus encoding firefly luciferase gene under the control of CRE promoter, as described in the manual (Qiagen, Netherlands) and then were selected using 1 μg/mL puromycin (Life technologies, Carlsbad) for 1 week. The survived cells were named as CRE-HEK293, expanded and then transfected with a G418 selective mammalian expression plasmid encoding human GCGR, GLP-1R, GIPR or GLP-2R. […] Single colony stable cell lines overexpressing both CRE-luciferase and GCGR, GLP-1R, GIPR, or GLP-2R were then established for in vitro activity assays. These four stable cell lines were named as HEK293-GCGR-CRE, HEK293-GLP-1R-CRE, HEK293-GIPR-CRE, and HEK293-GLP-2R-CRE. […] Cells were treated with different peptides in a dose dependent manner.

[2] = biological target: T2, human glucagon receptor (GCGR) (Homo sapiens, UniProt P47871); assay: GCGR receptor-mediated CRE Luc reporter assay (receptor-mediated cAMP synthesis); type: cell-based; settings: HEK293-GCGR-CRE cells, luciferase reporter
T2 construct: expressed in transfected cells; host or cells: HEK293 (CRE-HEK293)
Description: (§1) CREB responsive luciferase stable HEK 293 cell line overexpressing human glucagon receptor (GCGR), glucagon-like peptide 1 receptor (GLP-1R), glucose-dependent insulinotropic polypeptide receptor (GIPR), glucagon-like peptide 2 receptor (GLP-2R) was generated as follows. HEK293 cells were infected with lent virus encoding firefly luciferase gene under the control of CRE promoter, as described in the manual (Qiagen, Netherlands) and then were selected using 1 μg/mL puromycin (Life technologies, Carlsbad) for 1 week. The survived cells were named as CRE-HEK293, expanded and then transfected with a G418 selective mammalian expression plasmid encoding human GCGR, GLP-1R, GIPR or GLP-2R. In brief, GCGR, GLP-1R, GIPR, or GLP-2R plasmid was transfected into CRE-HEK293 cells using Lipofectamine 2000 and selected with 400 μg/mL geneticin (Life technologies, Carlsbad, CA). Single colony stable cell lines overexpressing both CRE-luciferase and GCGR, GLP-1R, GIPR, or GLP-2R were then established for in vitro activity assays. […] On the next day, 10 μl of Bright-Glo reagent (Promega, Madison, WI) were added into each well and firefly luminescence was determined using an Envision multilabel plate reader (PerkinElmer, Waltham, MA). EC50 of each peptide was calculated using GraphPad Prism 6 software (GraphPad, San Diego, CA). […]

[3] = biological target: T3, human glucagon-like peptide 2 receptor (GLP-2R) (Homo sapiens, UniProt O95838); assay: GLP-2R receptor-mediated CRE Luc reporter assay (receptor-mediated cAMP synthesis); type: cell-based; settings: HEK293-GLP-2R-CRE cells, luciferase reporter
T3 construct: expressed in transfected cells; host or cells: HEK293 (CRE-HEK293)
T3 sequence (O95838 1-553): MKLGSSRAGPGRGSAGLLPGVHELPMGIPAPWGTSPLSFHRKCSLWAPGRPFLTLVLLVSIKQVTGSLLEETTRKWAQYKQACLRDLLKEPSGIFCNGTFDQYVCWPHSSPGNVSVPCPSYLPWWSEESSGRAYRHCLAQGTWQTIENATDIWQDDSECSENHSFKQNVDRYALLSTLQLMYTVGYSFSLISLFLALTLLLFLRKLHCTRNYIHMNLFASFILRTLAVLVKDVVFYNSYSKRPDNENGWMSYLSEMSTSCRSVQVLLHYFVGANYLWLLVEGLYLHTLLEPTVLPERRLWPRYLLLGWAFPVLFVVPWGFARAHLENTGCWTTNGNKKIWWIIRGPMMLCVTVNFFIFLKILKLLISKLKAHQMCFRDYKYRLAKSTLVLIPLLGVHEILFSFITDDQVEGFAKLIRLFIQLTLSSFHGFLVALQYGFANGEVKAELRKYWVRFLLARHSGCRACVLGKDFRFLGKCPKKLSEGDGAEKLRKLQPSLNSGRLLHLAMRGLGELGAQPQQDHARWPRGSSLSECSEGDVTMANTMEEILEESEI
Description: as §1

[4] = In vivo pharmacokinetic (PK) study in CD-1 mice; settings: female, CD-1, mouse, plasma, 0.3 mg/kg
Description: (§2) Female CD-1 mice obtained from Charles River Limited were used after overnight food deprivation for in vivo PK study. Peptides were dissolved in pH adjusted Phosphate buffered saline (PBS). 100 μL of each peptide (0.3 mg/kg) was administrated into each mouse through either i.v. or s.c route. Food was provided to mice immediately after bleeding at 30 minute. Blood were extracted into heparinized tubes and centrifuged at 3,000×g for 15 min. The resulting supernatant plasma were then stored at −80° C. for activity assays. The concentrations of peptides in plasma at each time point were determined by activity assay described above and in vivo half-life of each peptide was calculated by using Winnonlin Phoenix software (Pharsight Corp, St. Louis, MO).

in vivo = settings: female, CD-1, mouse, 0.3 mg/kg
Description: as §2

T1 sequence (P43220 24-463): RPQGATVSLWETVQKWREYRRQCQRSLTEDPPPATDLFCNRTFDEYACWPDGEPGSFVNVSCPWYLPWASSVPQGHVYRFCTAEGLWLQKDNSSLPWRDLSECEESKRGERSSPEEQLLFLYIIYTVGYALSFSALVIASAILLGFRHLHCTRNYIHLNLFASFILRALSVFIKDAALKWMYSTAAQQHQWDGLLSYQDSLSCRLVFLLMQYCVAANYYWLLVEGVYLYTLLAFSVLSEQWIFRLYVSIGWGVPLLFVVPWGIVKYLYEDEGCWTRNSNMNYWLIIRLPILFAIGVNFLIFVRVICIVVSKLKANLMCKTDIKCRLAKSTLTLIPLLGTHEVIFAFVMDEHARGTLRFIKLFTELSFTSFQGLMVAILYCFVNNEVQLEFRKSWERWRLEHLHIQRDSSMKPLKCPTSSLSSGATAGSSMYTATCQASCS
T2 sequence (P47871 26-477): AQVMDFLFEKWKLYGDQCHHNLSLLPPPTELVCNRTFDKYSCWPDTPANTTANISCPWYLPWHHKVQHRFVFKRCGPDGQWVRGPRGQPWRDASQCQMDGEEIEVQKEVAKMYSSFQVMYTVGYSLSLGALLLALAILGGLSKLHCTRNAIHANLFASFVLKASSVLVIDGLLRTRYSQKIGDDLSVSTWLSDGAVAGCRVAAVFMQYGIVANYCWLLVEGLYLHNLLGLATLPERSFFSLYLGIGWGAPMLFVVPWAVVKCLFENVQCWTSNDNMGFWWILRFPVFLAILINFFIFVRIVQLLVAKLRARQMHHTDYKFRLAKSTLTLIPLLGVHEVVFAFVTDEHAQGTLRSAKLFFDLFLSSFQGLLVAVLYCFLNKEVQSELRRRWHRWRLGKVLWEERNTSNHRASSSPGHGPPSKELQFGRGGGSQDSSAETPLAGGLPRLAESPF

## CC[C@H](C)[C@@H]1NC(=O)[C@H](Cc2ccccc2)NC(=O)[C@H](CCC(=O)O)NC(=O)[C@H](CCCCN)NC(=O)[C@H](C)NC(=O)[C@H](C)NC(=O)[C@@H](NC(=O)[C@H](CCC(=O)O)NC(=O)[C@H](CC(=O)O)NC(=O)[C@H](CC(C)C)NC(=O)[C@H](Cc2ccc(O)cc2)NC(=O)[C@H](CCCCN)NC(=O)[C@H](CO)NC(=O)[C@H](Cc2ccc(O)cc2)NC(=O)[C@H](CC(=O)O)NC(=O)[C@H](CO)NC(=O)[C@@H](NC(=O)[C@H](Cc2ccccc2)NC(=O)[C@@H](NC(=O)CNC(=O)[C@H](CCC(N)=O)NC(=O)[C@@H](CO)NC(=O)[C@@H](N)Cc2c[nH]cn2)[C@@H](C)O)[C@@H](C)O)CCCCNC(=O)CCCC(=O)NCCCC[C@@H](C(=O)N[C@@H](Cc2c[nH]c3ccccc23)C(=O)N[C@@H](CC(C)C)C(=O)N[C@@H](CC(C)C)C(=O)N[C@@H](CC(N)=O)C(=O)NCC(=O)NCC(=O)N2CCC[C@H]2C(=O)N[C@@H](CO)C(=O)N[C@@H](CO)C(=O)NCC(=O)N[C@@H](C)C(=O)N2CCC[C@H]2C(=O)N2CCC[C@H]2C(=O)N2CCC[C@H]2C(=O)N[C@@H](CO)C(N)=O)NC1=O [mTA5] (H-H[dS]QGTFTSDYSKYLDEKAAKEFIKWLLNGGPSSGAPPPS-NH2; linker 17-24 via Glutaryl)
[1]
  EC50: 20 pM
[2]
  EC50: 70 pM

## CCCCCCCCCCCCCC(=O)NCCOCCOCCOCCC(=O)NCCC(=O)N1CC(=O)NCCCC[C@@H](C(=O)N[C@@H](C)C(=O)N[C@@H](CCCNC(=N)N)C(=O)N[C@@H](CC(=O)O)C(=O)N[C@@H](Cc2ccccc2)C(=O)N[C@H](C(=O)N[C@@H](CC(N)=O)C(=O)N[C@@H](Cc2c[nH]c3ccccc23)C(=O)N[C@@H](CC(C)C)C(=O)N[C@H](C(=O)N[C@@H](CCC(N)=O)C(=O)N[C@H](C(=O)N[C@@H](CCCCN)C(=O)N[C@H](C(=O)N[C@H](C(=O)N[C@@H](CC(=O)O)C(N)=O)[C@@H](C)O)[C@@H](C)CC)[C@@H](C)O)[C@@H](C)CC)[C@@H](C)CC)NC(=O)[C@H](CC(C)C)NC(=O)[C@H](CC(N)=O)NC(=O)[C@H](CC(=O)O)NC(=O)[C@H](CC(C)C)NC(=O)[C@H]([C@@H](C)CC)NC(=O)[C@H]([C@@H](C)O)NC(=O)[C@@H](NC(=O)[C@H](CCSC)NC(=O)[C@H](CCC(=O)O)NC(=O)[C@H](CC(=O)O)NC(=O)[C@H](CO)NC(=O)[C@H](Cc2ccccc2)NC(=O)[C@H](CO)NC(=O)CNC(=O)[C@H](CC(=O)O)NC(=O)CNC(=O)[C@@H](N)Cc2c[nH]cn2)CCCCNC(=O)C1 [mTA7]
[3]
  EC50: 68 pM
[4]; iv
  half-life: 3 h
[4]; sc
  half-life: 4 h

## CC[C@H](C)[C@@H]1NC(=O)[C@H](Cc2ccccc2)NC(=O)[C@H](CCC(=O)O)NC(=O)[C@H](CCCCN)NC(=O)[C@H](C)NC(=O)[C@H](C)NC(=O)[C@@H](NC(=O)[C@H](CCC(=O)O)NC(=O)[C@H](CC(=O)O)NC(=O)[C@H](CC(C)C)NC(=O)[C@H](Cc2ccc(O)cc2)NC(=O)[C@H](CCCCN)NC(=O)[C@H](CO)NC(=O)[C@H](Cc2ccc(O)cc2)NC(=O)[C@H](CC(=O)O)NC(=O)[C@H](CO)NC(=O)[C@@H](NC(=O)[C@H](Cc2ccccc2)NC(=O)[C@@H](NC(=O)CNC(=O)[C@H](CCC(N)=O)NC(=O)[C@@H](CO)NC(=O)[C@@H](N)Cc2c[nH]cn2)[C@@H](C)O)[C@@H](C)O)CCCCNC(=O)CN(C(=O)CCNC(=O)CCOCCOCCOCCNC(=O)CCCCCCCCCCCCCCCCC(=O)O)CC(=O)NCCCC[C@@H](C(=O)N[C@@H](Cc2c[nH]c3ccccc23)C(=O)N[C@@H](CC(C)C)C(=O)N[C@@H](CC(C)C)C(=O)N[C@@H](CCCNC(=N)N)C(=O)N[C@@H](C)C(N)=O)NC1=O [mTA4]
[1]
  EC50: 30 pM
[2]
  EC50: 150 pM
In vivo; iv
  half-life: 5.7 h
In vivo; sc
  half-life: 8 h
